In paper PMC10702053, “Design, synthesis, and characterization of novel system xC^− transport inhibitors: inhibition of microglial glutamate release and neurotoxicity” (Journal of Neuroinflammation, 2023):
Entries after “also recorded” stand apart in the source; their conditions may differ. Read-outs that look alike come from different tables or passages of the source.

Tests used:
[1] = Solubility in aqueous media (observation); format: physicochemical
[2] = biological target: T1, SxC^− transporter (system xC^− cystine-glutamate antiporter) (Rattus norvegicus, UniProt A0A8I6AB70); assay: Microglial glutamate release assay (LPS-activated primary microglia); format: cell-based
T1 construct: endogenous in cells
T1 sequence (A0A8I6AB70 1-502): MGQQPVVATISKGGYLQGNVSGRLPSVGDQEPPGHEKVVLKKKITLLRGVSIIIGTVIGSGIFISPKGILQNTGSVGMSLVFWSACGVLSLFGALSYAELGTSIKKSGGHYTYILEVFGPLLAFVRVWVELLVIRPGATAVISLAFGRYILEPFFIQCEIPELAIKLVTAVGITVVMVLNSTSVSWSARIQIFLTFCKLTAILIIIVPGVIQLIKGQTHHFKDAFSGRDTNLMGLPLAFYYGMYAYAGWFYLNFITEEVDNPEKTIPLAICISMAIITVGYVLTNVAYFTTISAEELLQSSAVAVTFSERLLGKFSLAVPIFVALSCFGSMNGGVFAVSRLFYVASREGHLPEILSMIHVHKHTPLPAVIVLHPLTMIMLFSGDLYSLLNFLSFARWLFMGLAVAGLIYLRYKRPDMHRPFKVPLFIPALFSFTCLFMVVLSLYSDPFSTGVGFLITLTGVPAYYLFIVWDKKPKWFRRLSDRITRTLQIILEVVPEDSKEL
T1 sequence (Q794F9 whole entry partner): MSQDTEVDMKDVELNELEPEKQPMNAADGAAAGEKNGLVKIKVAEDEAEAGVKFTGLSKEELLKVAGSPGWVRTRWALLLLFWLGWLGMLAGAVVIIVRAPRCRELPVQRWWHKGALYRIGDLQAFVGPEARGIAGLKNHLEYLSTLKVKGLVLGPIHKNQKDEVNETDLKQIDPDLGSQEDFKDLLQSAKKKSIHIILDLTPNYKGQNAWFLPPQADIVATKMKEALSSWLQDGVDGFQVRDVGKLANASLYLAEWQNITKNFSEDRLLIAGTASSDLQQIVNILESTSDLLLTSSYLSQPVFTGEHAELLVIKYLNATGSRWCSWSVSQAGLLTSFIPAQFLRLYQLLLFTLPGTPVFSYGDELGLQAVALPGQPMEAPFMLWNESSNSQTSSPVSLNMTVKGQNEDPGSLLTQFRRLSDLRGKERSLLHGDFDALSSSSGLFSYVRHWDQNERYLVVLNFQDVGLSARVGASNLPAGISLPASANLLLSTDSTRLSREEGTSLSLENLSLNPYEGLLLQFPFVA
Experimental: Primary cultures of rat microglia were established as described previously. Microglia were seeded at 375,000/cm^2 in 96-well plates with minimal essential medium with Earle’s salts (MEM) containing 10% fetal bovine serum (FBS). After an overnight plating, the cultures were washed twice with serum-free MEM, and then a third volume was applied containing test substances at the indicated concentrations; MEM contains 100 μM (Cys)2. Immediately thereafter, lipopolysaccharide (LPS) was added to some wells at 100 ng/ml. This concentration was selected for this particular lot of LPS as the concentration producing a slightly submaximal response (i.e., 2–5% below the maximum). After 18 h, 50 μl of medium was transferred from each well to a black, opaque-bottomed 96-well plate and combined with 50 μl of assay reagent from a Amplex® Red Glutamic Acid Assay kit (ThermoFisher). A standard curve was generated with a range of concentrations of L-glutamate (monosodium salt). The assay reagent contained 0.25 U/ml horseradish peroxidase, 0.08 U/ml L-glutamate oxidase, 0.5 U/ml L-glutamate/pyruvate transaminase, and 200 μM L-alanine. After 30 min, fluorescence was measured in a Molecular Devices SpectraMax 3 with excitation at 550 nm and emission at 590 nm; values were interpolated into the standard curve. The microglial medium was also assayed for nitric oxide using Griess reagent to confirm that none of the experimental compounds was a general inhibitor of microglial activation. We also considered whether any compound was toxic to microglia. The microglia remaining in the 96-well plates were combined with 3-(4,5-dimethylthiazol-2-yl)-2,5-diphenyl-2H-tetrazolium bromide (MTT) at a final concentration of 125 μg/ml (in MEM/FBS) and incubated for 30 min at 37 °C and 5.5% CO2. After removal of the medium, 100 μl of dimethyl sulfoxide (DMSO) was added to dissolve the formazan crystals, and absorbance at 540 nm was measured in the SpectraMax 3; the mean background obtained in wells containing DMSO alone was subtracted from each experimental value.
Data were analyzed in GraphPad Prism 9.5.1. Nonlinear regression was performed on the glutamate release assay data to derive IC50 values and the graphed plot lines. ANOVA indicated post hoc tests were applied to dosimetric data; P < 0.05 was considered significant.
Fig. 2 Microglial Glu release assay. Rat primary microglia were activated with 100 ng/ml LPS alone or immediately following application of the indicated concentrations of test substances. After 18 h in the presence of LPS, an aliquot of medium was assayed for Glu via a […]. A First generation of compounds was created by simply varying the position of a methyl group around an aromatic ring, comparing activity to 3,5-DBT. B Additional modifications were evaluated, including several that simply extend the size of the structure hypothesized to fit into the hydrophobic pocket of the SxC^− transporter. Values are represented relative to the Glu detected in cultures treated with LPS alone; each data point represents a mean of 4 cultures. Nonlinear regression was performed to provide the plot lines

[3] = Light sensitivity (observation); format: physicochemical
[4] = biological target: T1, SxC^− transporter (system xC^− cystine-glutamate antiporter); assay: Cystine uptake assay (selenocystine) in LPS-activated primary microglia; format: cell-based; conditions: LPS 100 ng/ml 15 h, selenocystine uptake 30 min, 0.03-300 μM
Experimental: Cystine uptake was measured essentially as per Shimomura et al. using the Cystine Uptake Assay Kit (DOJINDO). Primary microglia were seeded as per glutamate release assays, and some cultures were treated the following day with 100 ng/ml LPS. After 15 h, the cultures were washed twice with Hank’s balanced salt solution (HBSS) and then incubated 5 min at 37 °C in HBSS containing fresh LPS and test substances at the indicated concentrations. The cultures were then exposed to HBSS containing selenocystine (DOJINDO) for 30 min at 37 °C, after which they were washed three times with ice-cold phosphate-buffered saline and then fixed in 50 μl methanol. A detection buffer comprising fluorescein O,O’-diacrylate and reducing agent (DOJINDO) was then added, and the plate was sealed and incubated for 30 min at 37 °C. Reaction product was then assayed in the Molecular Devices SpectraMax 3 with excitation at 490 nm and emission at 535 nm. Blanks consisted of wells containing only cells that had been washed, fixed with methanol, and incubated with the detection buffer, and the values from these wells were subtracted from the experimental values.
Fig. 5 35DPTA7 and 35DPTSA12 inhibit cystine uptake in microglia. Rat primary microglia were activated with 100 ng/ml LPS alone for 15 h, then the indicated concentrations of test substances were applied during application of selenocystine. […]

primary cortical neurons = assay: Neurotoxicity assay: microglia transwell / cortical neuron coculture, MTT; format: cell-based, rat; conditions: microglia treated with compound + LPS 100 ng/ml, 1 h, then 18 h with cortical neurons
Experimental: Primary cultures of rat cortical neurons were established as described previously; incorporation of both a serum-free medium and an intermittent treatment with cytosine arabinoside results in cultures that are among the purest neuronal primary cultures available. The cultures were seeded in 24-well plates, and 8 days later primary microglia were plated in transwell inserts (12-mm diameter) at 375,000/cm^2, washed to serum-free MEM, and treated with test substances followed immediately by LPS (100 ng/ml). After 1 h, the inserts were placed into the wells of the neuronal cultures. After an additional 18 h, the inserts were removed, and neuronal survival was evaluated by MTT assay as described above. Values are represented relative to the MTT signal produced in cultures exposed to untreated microglia.
Fig. 6 35DPTA7 and 35DPTSA12 reduced the neurotoxicity of activated microglia. Primary microglia were plated on permeable membranes in basket-type cell-culture inserts. Some cultures were treated with the indicated concentrations of 35DBTA7 or 35DBTSA12, followed immediately by application of LPS (100 ng/ml); some cultures were untreated and some received LPS alone. After 1 h, the inserts were placed into wells containing primary cortical neurons. After an additional 18 h, neuronal survival was determined by MTT assay. […]

[5] = rat primary microglia, LPS 100 ng/ml, 18 h
[6] = rat primary microglia, LPS 100 ng/ml, 18 h, nonlinear regression in GraphPad Prism, read-out: IC50 ± SEM, inhibition of microglial Glu release

## O=C(N[C@@H](Cc1cc(Br)c(O)c(Br)c1)C(=O)O)c1ccc(-c2ccc(-c3ccccc3)cc2)cc1 [35DBTA8]
[1]
  Solubility in water / aqueous solutions (in words): poorly soluble
[1]; disodium salt
  Solubility of the disodium salt (carboxylate and phenoxide) in aqueous media: poorly soluble
[2]; [5]
  Inhibition of SxC^− / microglial Glu release (in words): quite effective
[2]; [6]
  IC50: 172 ± 5.6 nM

## Cc1ccccc1C(=O)N[C@@H](Cc1cc(Br)c(O)c(Br)c1)C(=O)O [35DBTA1]
[2]; [6]
  IC50: 1030 ± 440 nM

## N[C@@H](Cc1cc(Br)c(O)c(Br)c1)C(=O)O [3,5-DBT, 3,5-dibromotyrosine]
[1]
  Solubility in water / aqueous solutions (in words): high solubility in water as a salt
[2]
  IC50: 3490 ± 779 nM
[2]; [5]
  Inhibition of SxC^− / microglial Glu release (in words): potent inhibition

## CCC(=O)N[C@@H](Cc1cc(Br)c(O)c(Br)c1)C(=O)O [35DBTA5]
[2]; [6]
  IC50: 25500 ± 4590 nM

## N[C@@H](Cc1ccc(O)cc1)C(=O)O [Tyr, L-tyrosine, reference compound]
[2]; [5]
  Inhibition of SxC^− / microglial Glu release (in words): does not possess any inhibitory properties

## N[C@@H](Cc1cc(I)c(O)c(I)c1)C(=O)O [3,5-DIT]
[3]
  Light sensitivity: exceedingly light sensitive
[2]; [6]
  IC50: 665 ± 126 nM

## O=C(N[C@@H](Cc1cc(Br)c(O)c(Br)c1)C(=O)O)c1ccc(-c2ccccc2)cc1 [35DBTA7]
[4]
  Inhibition of cystine uptake into microglia (in words): dose-dependent inhibition
[2]; [5]
  Inhibition of SxC^− / microglial Glu release (in words): quite effective
[2]; [6]
  IC50: 1620 ± 377 nM
Primary cortical neurons
  Neuronal survival (MTT) in presence of LPS-activated microglia (in words): elevated the survival signal; also recorded: quite effective

## Cc1ccc(C(=O)N[C@@H](Cc2cc(Br)c(O)c(Br)c2)C(=O)O)cc1 [35DBTA3]
[2]; [5]
  Inhibition of SxC^− / microglial Glu release (in words): greatest potency
[2]; [6]
  IC50: 159 ± 24.4 nM

## O=C(O)[C@H](Cc1cc(Br)c(O)c(Br)c1)NC(=O)C(F)(F)F [35DBTA6]
[2]; [5]
  Inhibition of SxC^− / microglial Glu release (in words): trend toward inhibitory properties at low concentrations but produced a reversal of that trend above 3 μM

## N[C@@H](Cc1nc(I)[nH]c1I)C(=O)O [2,5-DIH, 2,5-diiodohistidine]
[2]; [5]
  Inhibition of SxC^− / microglial Glu release (in words): completely inactive

## Cc1cccc(C(=O)N[C@@H](Cc2cc(Br)c(O)c(Br)c2)C(=O)O)c1 [35DBTA2]
[2]; [6]
  IC50: 5790 ± 3960 nM
